Literature values in US20130243861A1, “PRESS-COATED TABLETS OF PREDNISONE” (CADILA HEALTHCARE LIMITED, priority 2012, published 2013).

C[C@]12C=CC(=O)C=C1CC[C@@H]1[C@@H]2C(=O)C[C@@]2(C)[C@H]1CC[C@]2(O)C(=O)CO [Prednisone, pregna-1,4-diene-3,11,20-trione, 17,21-dihydroxy-]
solubility in water: very slightly soluble
